The results in this text go back to patent US11666594B2, “Antibody-drug conjugates comprising a cyclic dinucleotide” (TAKEDA PHARMACEUTICAL COMPANY LIMITED, priority 2016, dated 2023).

Molecules are shown by their SMILES. Structures can show the parent of a compound that is named as a salt.

The test system of the assay is IRF3 phosphorylation in FaDu cell. Kind of assay: Phosphorylated IRF3 protein detection in FaDu cell. It counts as cell-based, human. The conditions noted are these: at 30 μM; 6 hr; 2′,3′-cGAMP 30 μM = 100%. The method, then:
Human larynx cancer cell line FaDu cell (ATCC) was seeded, the medium was replaced with serum free medium one day after the seeding. After the replacement, the cell was cultured for one day, and to the cell were added the natural ligand 2′,3′-cGAMP (the final concentration; 30 μM) and test compound (the final concentration; 15 μM or 30 μM). 6 hr after the addition, the cell was washed with PBS, the cell extract was prepared, and the phosphorylated IRF3 protein was detected by ELISA method or Western blotting method. The IRF3 protein phosphorylation activity of the test compound was calculated when the value in the sample with adding the natural ligand 2′,3′-cGAMP at the final concentration of 30 μM was considered as 100%.

Turning to `Nc1ncnc2c1ncn2[C@@H]1O[C@@H]2COP(=O)(O)O[C@@H]3[C@H](O)[C@@H](COP(=O)(S)O[C@H]2[C@H]1F)O[C@H]3n1cc(F)c2c(=O)[nH]cnc21` (stereo partly drawn) [Example 2, 7-((5R,7R,8R,12aR,14R,15R,15aR,16R)-14-(6-amino-9H-purin-9-yl)-15-fluoro-10,16-dihydroxy-2,10-dioxido-2-sulfanyloctahydro-12H-5,8-methanofuro[3,2-1][1,3,6,9,11,2,10]pentaoxadiphosphacyclotetradecin-7-yl)-5-fluoro-3,7-dihydro-4H-pyrrolo[2,3-d]pyrimidin-4-one di-triethylamine salt (Optical Isomer)], the “activity level of test compound (IRF3 protein phosphorylation)” value is recorded as 88.7% at 30 μM.
